Results on one compound are retold here after patent publication US7045532B2 (Millennium Pharmaceuticals, Inc., priority 1999, dated 2006).

SMILES strings stand for the structures. Read-outs that look alike come from different tables or passages of the source. Bounds are passed on as bounds.

One data set deals with T1, ACE-2 (Homo sapiens, UniProt Q9BYF1).
T1 construct: a stop codon inserted after the serine immediately preceding the transmembrane domain; made in house; host or cells: CHO K1 cells (transient transfection, purified from conditioned medium)
T1 sequence (Q9BYF1 18-740 limits assumed): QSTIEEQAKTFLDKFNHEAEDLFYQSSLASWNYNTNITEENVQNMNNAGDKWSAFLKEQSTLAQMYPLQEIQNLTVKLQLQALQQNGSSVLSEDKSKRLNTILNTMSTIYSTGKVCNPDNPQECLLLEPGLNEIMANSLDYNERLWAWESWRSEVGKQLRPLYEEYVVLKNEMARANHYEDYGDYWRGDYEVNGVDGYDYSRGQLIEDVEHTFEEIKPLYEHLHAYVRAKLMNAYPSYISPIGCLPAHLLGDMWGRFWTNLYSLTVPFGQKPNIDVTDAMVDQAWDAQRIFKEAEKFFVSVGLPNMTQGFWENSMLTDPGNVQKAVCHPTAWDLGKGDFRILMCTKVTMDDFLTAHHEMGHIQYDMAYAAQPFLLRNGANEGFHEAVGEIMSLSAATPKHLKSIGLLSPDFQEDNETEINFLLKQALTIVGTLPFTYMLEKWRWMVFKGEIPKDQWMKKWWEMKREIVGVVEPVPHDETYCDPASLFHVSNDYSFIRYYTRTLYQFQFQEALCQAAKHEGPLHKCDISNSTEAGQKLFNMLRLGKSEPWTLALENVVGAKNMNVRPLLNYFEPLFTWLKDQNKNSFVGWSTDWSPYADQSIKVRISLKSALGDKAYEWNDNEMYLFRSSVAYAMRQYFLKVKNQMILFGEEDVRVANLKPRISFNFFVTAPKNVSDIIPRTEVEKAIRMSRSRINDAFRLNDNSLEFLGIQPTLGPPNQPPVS
In words: ACE-2 Competitive Substrate Assay (ACS Assay). Type of data set: biochemical.

A further data set deals with T2, ACE (Sigma, A2580) (Sus scrofa, UniProt F1RRW5).
T2 construct: ACE from porcine kidney; purchased Sigma A2580; host or cells: porcine kidney
T2 sequence (F1RRW5 34-1309): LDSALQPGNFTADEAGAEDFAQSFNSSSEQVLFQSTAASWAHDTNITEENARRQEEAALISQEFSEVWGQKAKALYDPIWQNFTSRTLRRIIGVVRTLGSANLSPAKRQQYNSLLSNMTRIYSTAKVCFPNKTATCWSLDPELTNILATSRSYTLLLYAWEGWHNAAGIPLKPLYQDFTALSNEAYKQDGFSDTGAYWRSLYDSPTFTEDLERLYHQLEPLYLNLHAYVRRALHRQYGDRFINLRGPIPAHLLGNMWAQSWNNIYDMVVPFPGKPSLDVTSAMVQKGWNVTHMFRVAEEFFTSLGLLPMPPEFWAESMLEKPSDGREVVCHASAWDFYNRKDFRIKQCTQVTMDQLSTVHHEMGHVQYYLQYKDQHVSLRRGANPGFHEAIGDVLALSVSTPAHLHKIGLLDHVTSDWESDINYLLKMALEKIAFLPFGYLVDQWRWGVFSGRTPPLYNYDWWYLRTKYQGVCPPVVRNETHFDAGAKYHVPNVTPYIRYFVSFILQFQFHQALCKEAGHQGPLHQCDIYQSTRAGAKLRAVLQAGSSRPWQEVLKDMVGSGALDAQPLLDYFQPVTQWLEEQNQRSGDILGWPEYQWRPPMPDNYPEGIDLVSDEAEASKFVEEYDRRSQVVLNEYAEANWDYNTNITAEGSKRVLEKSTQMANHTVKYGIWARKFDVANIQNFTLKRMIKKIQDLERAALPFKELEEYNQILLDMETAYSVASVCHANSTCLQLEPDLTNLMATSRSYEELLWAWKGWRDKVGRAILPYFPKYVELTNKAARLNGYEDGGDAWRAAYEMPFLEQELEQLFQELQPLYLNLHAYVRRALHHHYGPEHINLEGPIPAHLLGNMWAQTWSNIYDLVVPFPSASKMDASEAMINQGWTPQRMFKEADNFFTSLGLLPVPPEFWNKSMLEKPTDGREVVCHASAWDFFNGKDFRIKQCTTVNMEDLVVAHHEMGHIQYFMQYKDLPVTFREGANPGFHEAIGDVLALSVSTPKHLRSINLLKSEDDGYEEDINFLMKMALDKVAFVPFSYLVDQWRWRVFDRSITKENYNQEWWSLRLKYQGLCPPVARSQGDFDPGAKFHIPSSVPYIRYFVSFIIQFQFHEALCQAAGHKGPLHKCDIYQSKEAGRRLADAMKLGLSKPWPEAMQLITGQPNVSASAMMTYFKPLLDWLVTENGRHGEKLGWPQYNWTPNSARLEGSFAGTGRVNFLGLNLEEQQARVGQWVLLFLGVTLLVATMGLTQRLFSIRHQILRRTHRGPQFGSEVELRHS
In words: ACE enzymatic activity assay. It is filed as biochemical, porcine. The settings on record: Ki class; compounds tested in 5% DMSO, 12 compound concentrations. In outline:
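ACE (1 nM final) in 50 mM HEPES, 300 mM NaCl, 0.01% Brij-35, pH 7.5, with compound in 5% DMSO at 12 concentrations, 25 °C. Substrate cleavage run ~30 min, stopped with EDTA; fluorescence read at excitation 320 nm, emission 405 nm.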

For another data set, the target named is T3, Carboxypeptidase A (Bos taurus, UniProt P00730).
T3 sequence (P00730 111-419): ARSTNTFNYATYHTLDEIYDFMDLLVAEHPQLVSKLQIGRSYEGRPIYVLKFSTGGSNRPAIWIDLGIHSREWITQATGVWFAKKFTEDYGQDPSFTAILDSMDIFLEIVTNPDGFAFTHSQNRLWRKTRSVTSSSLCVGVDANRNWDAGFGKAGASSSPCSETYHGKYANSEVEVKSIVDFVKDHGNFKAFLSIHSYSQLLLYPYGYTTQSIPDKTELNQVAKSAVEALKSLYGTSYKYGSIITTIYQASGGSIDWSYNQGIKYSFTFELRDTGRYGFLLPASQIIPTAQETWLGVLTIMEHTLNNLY
Briefly: Carboxypeptidase A activity assay. It is filed as biochemical. The settings on record: Ki class; compounds tested in 5% DMSO, 12 compound concentrations. A digest of the protocol: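 Bovine carboxypeptidase A activity followed at 328 nm in 5% DMSO, reaction stopped with EDTA. Activity measured at 12 compound concentrations. Ki derived from apparent Ki as Ki=Kiapp/(1+[S]/Km).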

The nature of data set [1]: Pharmacokinetic profile in BBZDR rats (plasma samples). Type of data set: in vivo, rat (BBZDR). Particulars: 100 and 300 mg/kg/day oral gavage, 0-24 hours after dosing. The procedure: To determine the pharmacokinetic profile of Compound HE, plasma samples were taken at 0, 0.5, 1, 2, 4, 8, 12, and 24 hours after dosing in both Compound HE dose groups.
Data set [2] in a line: Effect on appetite: food consumption in ICR mice. The settings on record: 100 mg/kg oral.

Protocol for ACE-2: An example of such an assay is the ACE-2 Competitive Substrate Assay (ACS Assay).
ACE-2 enzymatic activity was assayed in microtitre plates by the following procedure. The ACE-2 assay buffer used contained 50 mM MES (Boehringer-Mannheim), 300 mM NaCl (Sigma) and 0.01% Brij-35 (Pierce Chemical Co.) at pH 6.5.
Reactions were mixed and incubated at 25° C.
The activity of the test compounds was investigated using the procedure outlined above. The compounds were tested in 5% DMSO. Enzyme activity was measured at 12 compound concentrations.
The following reagents, equipment, stock solutions, and working solutions are used for the ACE-2 assay.
The assay buffer is prepared using 50 mM Mes, 300 mM NaCl, and 0.01% Brij 35, pH 6.5. These components are measured and made up to approximately 800 ml with nanopure water. Using 1M NaOH the pH is adjusted to 6.5 and the solution is then made up to the final volume of 1 L using nanopure water. The buffer is filtered through a 0.45 um disposable filter unit and stored at +4° C. until needed.
This working solution maintains activity for up to 8 hours at room temperature.
The working ACE-2 solution (for using with Mca-APK(Dnp)) is prepared by thawing ACE-2 and diluting it to a concentration of 1 nM using the assay buffer at room temperature.
These solutions are stable up to 8 hours but can not be frozen-thawed for reuse.
Multiple well plates are used for this experiment.
Approximately 360 compounds are tested per plate. Five μl per of each test compound is added in each well. […] Immediately thereafter, 20 μl of Mca-XXX(Dnp) working solution is added per well and mixed for 30 seconds. The reaction is allowed to progress for approximately 60 minutes.
After approximately 60 minutes, 20 μl of 50 mM EDTA is added per well (reaction is linear up to 90 minutes) and mixed for 30 seconds. At this point the fluorescent signal is stable up to 20 hours at room temperature.

Regarding `CC(C)CC(N[C@@H](Cc1cncn1Cc1cc(Cl)cc(Cl)c1)C(=O)O)C(=O)O` (single isomer, unassigned) [HE, 2-[1-Carboxy-2-[3-(3,5-dichloro-benzyl)-3H-imidazol-4-yl]-ethylamino)4-methyl-pentanoic acid], the Ki at ACE-2 (Ki class, compounds tested in 5% DMSO, 12 compound concentrations, Ki=Kiapp/(1+[S]/Km), read-out: Human ACE-2 Activity) was less than 0.1 µM; on ACE-2 (Table 3, very good ACE-2 inhibiting compounds, species not given, read-out: ACE-2 Activity, Ki), less than 0.05 µM; at ACE (Sigma, A2580) it was 10 to 50 µM; on Carboxypeptidase A it was 10 to 50 µM. Also, the “systemic exposure (plasma levels)” value in data set [1] is reported as “relatively low systemic levels”. In addition, the “reduction of food intake compared to vehicle” value is given as “about 40%” in data set [2] (1 hr after administration) and “about 18%” in data set [2] (3 hr after administration).
